Results: ChEMBL document CHEMBL4834420, “Projected Dose Optimization of Amino- and Hydroxypyrrolidine Purine PI3Kδ Immunomodulators” (J Med Chem, 2021)

Assays:
[1] = target: T1, Phosphatidylinositol 4,5-bisphosphate 3-kinase catalytic subunit delta isoform (Homo sapiens, UniProt O00329); experiment: Inhibition of PI3Kdelta in human Ramos cells assessed as reduction in anti-IgM-antibody-induced phosphorylation of AKT at Ser473 residue preincubated for 20 mins followed by anti-IgM antibody stimulation and measured after 30 mins by alphascreen assay; format: cell-based
T1 sequence (O00329 whole entry): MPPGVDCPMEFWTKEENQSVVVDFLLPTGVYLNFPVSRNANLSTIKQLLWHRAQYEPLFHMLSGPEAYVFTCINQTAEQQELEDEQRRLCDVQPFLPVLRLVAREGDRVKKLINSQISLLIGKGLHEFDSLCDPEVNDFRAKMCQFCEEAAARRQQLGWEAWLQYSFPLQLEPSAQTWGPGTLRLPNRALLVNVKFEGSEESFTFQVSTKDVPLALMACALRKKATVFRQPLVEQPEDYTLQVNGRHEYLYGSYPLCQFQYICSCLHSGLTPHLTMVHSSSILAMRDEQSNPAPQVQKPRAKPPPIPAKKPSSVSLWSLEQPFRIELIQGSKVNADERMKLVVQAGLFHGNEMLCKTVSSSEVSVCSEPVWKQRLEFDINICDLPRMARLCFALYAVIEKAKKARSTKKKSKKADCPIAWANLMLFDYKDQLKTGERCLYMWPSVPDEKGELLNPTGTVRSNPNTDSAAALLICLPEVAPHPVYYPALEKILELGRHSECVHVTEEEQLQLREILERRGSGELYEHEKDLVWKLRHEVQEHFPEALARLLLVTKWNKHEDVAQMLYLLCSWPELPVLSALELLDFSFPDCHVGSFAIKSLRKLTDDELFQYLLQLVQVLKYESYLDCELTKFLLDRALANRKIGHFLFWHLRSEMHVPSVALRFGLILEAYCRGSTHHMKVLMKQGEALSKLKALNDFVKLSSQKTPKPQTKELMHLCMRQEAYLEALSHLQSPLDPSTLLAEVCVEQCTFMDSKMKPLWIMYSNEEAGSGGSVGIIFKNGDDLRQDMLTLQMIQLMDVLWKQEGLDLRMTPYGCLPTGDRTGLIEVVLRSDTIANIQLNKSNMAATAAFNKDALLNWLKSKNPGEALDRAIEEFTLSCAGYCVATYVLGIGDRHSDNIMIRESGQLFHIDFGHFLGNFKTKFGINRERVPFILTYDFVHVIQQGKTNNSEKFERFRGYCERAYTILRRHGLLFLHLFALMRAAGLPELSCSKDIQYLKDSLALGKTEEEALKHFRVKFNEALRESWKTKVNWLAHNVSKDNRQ

[2] = Inhibition of adenosine transporter in human HeLa cells assessed as reduction in [3H]adenosine uptake preincubated for 30 mins followed by [3H]adenosine addition and measured after 60 mins; format: cell-based
[3] = target: PI3-kinase p110-delta/p85-alpha (Homo sapiens, UniProt O00329); experiment: Inhibition of N-terminal His6-tagged recombinant full length human p110delta/untagged recombinant full length human p85alpha expressed in baculovirus infected Sf21 insect cells using PIP2 as substrate preincubated for 15 mins followed by substrate addition and measured after 1 hr by HTRF assay
[4] = Apparent permeability in pig LLC-PK1 cells; format: ADME, cell-based, Sus scrofa
[5] = Intrinsic clearance in Beagle dog at 0.25 mg/kg, iv or 0.5 mg/kg, po; format: ADME, organism-based, Canis lupus familiaris; details: in vivo
[6] = Plasma clearance in Wistar Han rat at 0.5 mg/kg, iv or 1 mg/kg, po; format: ADME, organism-based
[7] = Lipophilicity, log D of the compound by HPLC analysis; format: physicochemical
[8] = Unbound volume of distribution in Wistar Han rat; format: ADME; details: in vivo
[9] = target: T1, Phosphatidylinositol 4,5-bisphosphate 3-kinase catalytic subunit delta isoform; experiment: Inhibition of PI3Kdelta in human whole blood assessed as reduction in anti-CD79b antibody-induced CD69 expression preincubated for 60 mins followed by anti-CD79b antibody stimulation and measured after 3 hrs by FACS analysis; format: tissue-based
[10] = Unbound volume of distribution in Beagle dog; format: ADME, Canis lupus familiaris; details: in vivo
[11] = Plasma clearance in Beagle dog at 0.25 mg/kg, iv or 0.5 mg/kg, po; format: ADME, organism-based, Canis lupus familiaris
[12] = Oral bioavailability in Wistar Han rat; format: ADME, organism-based; details: in vivo
[13] = Half-life in Wistar Han rat; format: ADME; details: in vivo
[14] = Oral bioavailability in Beagle dog; format: ADME, organism-based, Canis lupus familiaris; details: in vivo
[15] = Volume of distribution in Wistar Han rat; format: ADME; details: in vivo
[16] = Intrinsic clearance in Wistar Han rat at 0.5 mg/kg, iv or 1 mg/kg, po; format: ADME, organism-based; details: in vivo
[17] = Volume of distribution in Beagle dog; format: ADME, Canis lupus familiaris; details: in vivo
[18] = Half-life in Beagle dog; format: ADME, Canis lupus familiaris; details: in vivo

PI3-kinase p110-delta/p85-alpha, sequence (P27986 whole entry, one chain of several): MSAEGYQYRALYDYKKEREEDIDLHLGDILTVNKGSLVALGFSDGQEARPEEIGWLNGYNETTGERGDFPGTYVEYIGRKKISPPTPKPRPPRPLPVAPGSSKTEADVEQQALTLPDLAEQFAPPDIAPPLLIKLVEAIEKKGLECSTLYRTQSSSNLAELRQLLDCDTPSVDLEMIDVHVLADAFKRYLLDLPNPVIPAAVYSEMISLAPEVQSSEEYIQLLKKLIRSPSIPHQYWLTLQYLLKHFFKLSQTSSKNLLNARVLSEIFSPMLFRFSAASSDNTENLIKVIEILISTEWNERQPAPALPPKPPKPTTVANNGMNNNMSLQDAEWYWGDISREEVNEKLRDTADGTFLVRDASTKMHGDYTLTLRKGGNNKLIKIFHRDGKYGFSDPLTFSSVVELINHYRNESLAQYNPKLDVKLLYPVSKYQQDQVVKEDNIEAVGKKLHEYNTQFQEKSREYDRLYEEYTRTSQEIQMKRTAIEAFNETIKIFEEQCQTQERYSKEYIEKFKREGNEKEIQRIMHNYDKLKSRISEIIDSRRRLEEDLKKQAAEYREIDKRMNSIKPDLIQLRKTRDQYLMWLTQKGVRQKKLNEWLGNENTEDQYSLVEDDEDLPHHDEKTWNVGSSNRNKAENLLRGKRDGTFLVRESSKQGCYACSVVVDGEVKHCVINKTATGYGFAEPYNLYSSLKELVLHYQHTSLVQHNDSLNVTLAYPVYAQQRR

SMILES | IC50 [1] [nM] | IC50 [2] [nM] | IC50 [3] [nM] | Papp [4] [×10⁻⁶ cm/s] | CL [5] [mL/min/kg] | clearance [6] [mL/min/kg] | logD [7] | Vdu [8] [L/kg] | IC50 [9] [nM] | Vdu [10] [L/kg] | clearance [11] [mL/min/kg] | bioavailability [12] [%] | half-life [13] [h] | bioavailability [14] [%] | Vd [15] [L/kg] | CL [16] [mL/min/kg] | Vd [17] [L/kg] | half-life [18] [h]
CCC(=O)N1CC[C@H](Nc2ncnc3c2nc(-c2cnn(CC)c2C)n3CC(F)(F)F)C1 | 330 | 9300 | 5.9 |  |  |  |  |  |  |  |  |  |  |  |  |  |  | 
CCC(=O)N1CC[C@H](Nc2ncnc3c2nc(-c2ccc(C)nc2)n3C)C1 | 160 | 3800 | 5 |  |  |  |  |  |  |  |  |  |  |  |  |  |  | 
CCC(=O)N1CC[C@H](Nc2ncnc3c2nc(-c2cnn(CC)c2C)n3CC(F)F)C1 | 14 | 3100 | 1.3 |  |  |  |  |  |  |  |  |  |  |  |  |  |  | 
CCC(=O)N1CC[C@H](Nc2ncnc3c2nc(-c2ccn(CC)c2C)n3C)C1 | 125 |  | 26 |  |  |  |  |  |  |  |  |  |  |  |  |  |  | 
CCC(=O)N1CC[C@H](Nc2ncnc3c2nc(-c2cnn(CC)c2C)n3CC2CC2)C1 | 1350 |  |  |  |  |  |  |  |  |  |  |  |  |  |  |  |  | 
CCC(=O)N1CC[C@H](Nc2ncnc3c2nc(-c2cnc(C(C)(C)C)s2)n3C)C1 | 4 | 1600 | 0.7 |  |  |  |  |  |  |  |  |  |  |  |  |  |  | 
CCn1c(-c2cnc(C)nc2)nc2c(O[C@H]3CCN(C(=O)C4CC4)C3)ncnc21 | 80 | 5300 | 5.9 | 28 | 7 | 9.7 | 1 | 2.8 | 270 | 0.7 | 4.9 | 64 | 1.8 | 100 | 0.7 | 44 | 0.6 | 1.3
CCn1c(-c2cnc(C)nc2)nc2c(O[C@H]3CCN(C(=O)c4cocn4)C3)ncnc21 | 94 | > 10000 | 6.4 |  | 16 | 3.7 | 0.7 | 3.2 | 600 | 1.9 | 9.3 | 50 | 1.7 | 100 | 0.5 | 25 | 1.7 | 1.8
CCC(=O)N1CC[C@H](Nc2ncnc3c2nc(-c2cnc(OC)c(F)c2)n3C)C1 | 20 | 1300 | 2.6 |  |  |  |  |  |  |  |  |  |  |  |  |  |  | 
CCCn1c(-c2cnc(C)nc2)nc2c(N[C@H]3CCN(C(=O)CC)C3)ncnc21 | 455 |  | 135 |  |  |  |  |  |  |  |  |  |  |  |  |  |  | 
CCC(=O)N1CC[C@H](Nc2ncnc3c2nc(-c2ccc(C(F)(F)F)nc2)n3C)C1 | 66 | 700 | 9.9 |  |  |  |  |  |  |  |  |  |  |  |  |  |  | 
CCC(=O)N1CC[C@H](Nc2ncnc3[nH]c(-c4cnn(CC)c4C)nc23)C1 | 875 | 5400 | 7.6 |  |  |  |  |  |  |  |  |  |  |  |  |  |  | 
CCC(=O)N1CC[C@H](Nc2ncnc3c2nc(-c2cnn(CC)c2C)n3CC)C1 | 2 | 2300 | 0.2 |  |  |  |  |  |  |  |  |  |  |  |  |  |  | 
CCC(=O)N1CC[C@H](Nc2ncnc3c2nc(-c2ccc(OC)nc2)n3C)C1 | 67 | 1900 |  |  |  |  |  |  |  |  |  |  |  |  |  |  |  | 

Second part, the compound after the results:

IC50 [1] [nM] | IC50 [2] [nM] | IC50 [3] [nM] | Papp [4] [×10⁻⁶ cm/s] | CL [5] [mL/min/kg] | clearance [6] [mL/min/kg] | logD [7] | Vdu [8] [L/kg] | IC50 [9] [nM] | Vdu [10] [L/kg] | clearance [11] [mL/min/kg] | bioavailability [12] [%] | half-life [13] [h] | bioavailability [14] [%] | Vd [15] [L/kg] | CL [16] [mL/min/kg] | Vd [17] [L/kg] | half-life [18] [h] | SMILES
198 | 3700 | 21 |  |  |  |  |  |  |  |  |  |  |  |  |  |  |  | CCCn1c(-c2cnn(CC)c2C)nc2c(N[C@H]3CCN(C(=O)CC)C3)ncnc21
43 | 2200 | 1.3 | 33 | 46 | 1.7 | 2.1 | 4.2 | 68 | 1.7 | 12 | 52 | 2 | 100 | 0.2 | 29 | 0.7 | 0.7 | CCn1c(-c2ccc(C(F)(F)F)nc2)nc2c(O[C@H]3CCN(C(=O)N4CC(OC)C4)C3)ncnc21
110 | 3200 | 4.1 | 27 | 6 | 1.2 | 1.9 | 3.6 | 100 | 1.6 | 3.4 | 58 | 2.3 | 100 | 0.2 | 19 | 0.9 | 3.6 | CCn1c(-c2ccc(C(F)(F)F)nc2)nc2c(O[C@H]3CCN(C(=O)C4CCOC4)C3)ncnc21 (stereo not given in full)
110 | > 10000 | 2.8 | 18 | 3.3 | 3.8 | 1 | 2.5 | 75 | 0.9 | 2.1 | 37 | 1.8 | 80 | 0.5 | 19 | 0.6 | 3.6 | CCn1c(-c2cnc(C)nc2)nc2c(O[C@H]3CCN(C(=O)[C@H]4C[C@@H](OC)C4)C3)ncnc21
300 | 4400 | 7.5 | 29 | 19 | 1.3 | 2 | 2.6 | 380 | 3.4 | 5.6 | 100 | 6 | 100 | 0.3 | 13 | 1.2 | 2.5 | CCn1c(-c2ccc(C(F)(F)F)nc2)nc2c(O[C@H]3CCN(C(=O)c4cocn4)C3)ncnc21
71 | 2000 | 4.2 |  |  |  |  |  |  |  |  |  |  |  |  |  |  |  | CCC(=O)N1CC[C@H](Nc2ncnc3c2nc(-c2cnc(C)nc2)n3C)C1
33 | 8900 | 2.1 |  |  | 24 | 0.7 | 4.3 |  |  |  | 18 | 1.4 |  | 0.7 | 220 |  |  | CCn1c(-c2cnc(C)nc2)nc2c(N[C@H]3CCN(C(=O)C4CCOCC4)C3)ncnc21
34 | 6100 | 0.8 | 10 | 13 | 6.9 | 0.9 | 4.1 | 26 | 2 | 7.1 | 52 | 2.3 | 85 | 1.5 | 81 | 1.5 | 4.3 | CCn1c(-c2cnc(C)nc2)nc2c(N[C@H]3CCN(C(=O)[C@H]4C[C@@H](OC)C4)C3)ncnc21
720 |  | 39 |  |  |  |  |  |  |  |  |  |  |  |  |  |  |  | CCC(=O)N1CC[C@H](Nc2ncnc3c2nc(-c2cnn(CC)c2C)n3C2CC2)C1
67 | 4700 | 0.7 | 10 | 19 | 11 | 0.7 | 4.8 | 9 | 1.9 | 9 | 16 | 4 | 69 | 0.7 | 93 | 1.4 | 1.7 | CCn1c(-c2cnc(C)nc2)nc2c(N[C@H]3CCN(C(=O)N4CC(OC)C4)C3)ncnc21
6 | 300 |  |  |  |  |  |  |  |  |  |  |  |  |  |  |  |  | CCC(=O)N1CC[C@H](Nc2ncnc3c2nc(-c2cnc(OC)c(C)c2)n3C)C1
 | 7300 |  |  |  |  |  |  |  |  |  |  |  |  |  |  |  |  | CCC(=O)N1CC[C@H](Nc2ncnc3c2nc(-c2cnn(CC)c2C)n3C)C1
